Values after ≈ are worked out from the molar mass of the structure shown. Active and inactive are the calls of the source. The rule behind the calls is not given here.
Experiments:
[1] = Cytotoxicity against mouse NCTC clone 929 cells assessed as viable cells at 12.5 ug/mL incubated for 24 hrs by CCK-8 assay relative to control; format: toxicity, cell-based; conditions: NCTC clone 929 (L929) cells, at 12.5 µg/mL, read-out: Activity
Staphylococcus aureus [2] = test: Antimicrobial activity against methicillin-resistant Staphylococcus aureus N315 assessed as bacterial growth inhibition incubated for 24 hrs by Muller Hinton broth based dilution assay; format: functional
Staphylococcus aureus [3] = test: Disruption of preformed biofilm in Staphylococcus aureus ATCC29213 assessed as residual preformed biofilm at 3.125 ug/mL incubated for 24 hrs by crystal violet staining based analysis relative to control; format: functional; conditions: dose 3.125 µg/ml
Staphylococcus aureus [4] = test: Disruption of preformed biofilm in Staphylococcus aureus ATCC29213 assessed as residual preformed biofilm at 12.5 ug/mL incubated for 24 hrs by crystal violet staining based analysis relative to control; format: functional; conditions: dose 12.5 µg/ml
Cell membrane [5] = test: Disruption of membrane integrity in Escherichia coli ATCC25922 assessed as increase in fluorescence intensity at 1 to 8 times of MIC measured for 1 hr by SYTOX green dye based fluorescence analysis
Staphylococcus aureus [6] = test: Antimicrobial activity against methicillin-resistant Staphylococcus aureus NCTC10442 assessed as bacterial growth inhibition incubated for 24 hrs in presence of 24.3 ug/mL Mg2+ by Muller Hinton broth based dilution assay; format: functional
Escherichia coli [7] = test: Antimicrobial activity against Escherichia coli ATCC25922 assessed as log reduction in microbial load at 4 times of MIC measured at 1 hr by time-kill kinetics assay; format: functional
Escherichia coli [8] = test: Induction of drug resistance in Escherichia coli ATCC25922 assessed as change in MIC at sub-inhibitory concentration incubated for 21 to 22 passages; format: functional
[9] = Cytotoxicity against mouse J774.A1 cells assessed as viable cells at 12.5 ug/mL incubated for 24 hrs by CCK-8 assay relative to control; format: toxicity, cell-based; conditions: at 12.5 µg/mL, read-out: Activity
Staphylococcus aureus [10] = test: Disruption of preformed biofilm in Staphylococcus aureus ATCC29213 assessed as residual preformed biofilm at 0.78 ug/mL incubated for 24 hrs by crystal violet staining based analysis relative to control; format: functional; conditions: dose 0.78 µg/ml
[11] = Cytotoxicity against mouse NCTC clone 929 cells assessed as viable cells at 3.125 ug/mL incubated for 24 hrs by CCK-8 assay relative to control; format: toxicity, cell-based; conditions: NCTC clone 929 (L929) cells, at 3.125 µg/mL, read-out: Activity
Staphylococcus aureus [12] = test: Antimicrobial activity against methicillin-resistant Staphylococcus aureus NCTC10442 assessed as bacterial growth inhibition incubated for 24 hrs in presence of 3220 ug/mL Na+ by Muller Hinton broth based dilution assay; format: functional
Klebsiella pneumoniae = test: Antimicrobial activity against Klebsiella pneumoniae ATCC10031 assessed as bacterial growth inhibition incubated for 24 hrs by Muller Hinton broth based dilution assay; format: functional
Cell membrane [13] = test: Disruption of membrane integrity in Escherichia coli ATCC25922 assessed as red fluorescence at 8 times of MIC incubated for 2 hrs under dark condition by SYTO 9 and PI staining based laser confocal microscopy analysis
Staphylococcus aureus [14] = test: Disruption of preformed biofilm in Staphylococcus aureus ATCC29213 assessed as residual preformed biofilm at 6.25 ug/mL incubated for 24 hrs by crystal violet staining based analysis relative to control; format: functional; conditions: dose 6.25 µg/ml
Pseudomonas aeruginosa [15] = test: In vivo antibacterial activity against Pseudomonas aeruginosa ATCC9027 infected in keratitis C57BL/6 mouse model assessed as log reduction in bacterial load at 0.5 % administered topically 4 times per day for 3 days; format: functional; conditions: time 3 day
Candida albicans [16] = test: Antimicrobial activity against Candida albicans ATCC10231 assessed as fungal growth inhibition incubated for 48 hrs in presence of 3220 ug/mL Na+ by Sabouraud Dextrose broth based dilution assay; format: functional
Candida albicans [17] = test: Antimicrobial activity against Candida albicans ATCC10231 assessed as fungal growth inhibition incubated for 48 hrs in presence of 100 ug/mL Ca2+ by Sabouraud Dextrose broth based dilution assay; format: functional
[18] = Cytotoxicity against mouse corneal epithelial cells assessed as viable cells at 25 ug/mL incubated for 24 hrs by CCK-8 assay relative to control; format: toxicity, cell-based, Corneal epithelial cell; conditions: at 25 µg/mL, read-out: Activity
Candida albicans [19] = test: Antimicrobial activity against Candida albicans CMCC98001 assessed as fungal growth inhibition incubated for 48 hrs in presence of 175.5 ug/mL K+ by Sabouraud Dextrose broth based dilution assay; format: functional
Candida albicans [20] = test: Antimicrobial activity against Candida albicans CMCC98001 assessed as fungal growth inhibition incubated for 48 hrs in presence of 24.3 ug/mL […] by Sabouraud Dextrose broth based dilution assay; format: functional
Escherichia coli [21] = test: Antimicrobial activity against Escherichia coli ATCC25922 assessed as bacterial growth inhibition incubated for 24 hrs in presence of 24.3 ug/mL Mg2+ by Muller Hinton broth based dilution assay; format: functional
Staphylococcus aureus [22] = test: Induction of drug resistance in Staphylococcus aureus ATCC29213 assessed as change in MIC at sub-inhibitory concentration incubated for 21 to 22 passages; format: functional
[23] = Cytotoxicity against mouse corneal epithelial cells assessed as viable cells at 6.25 ug/mL incubated for 24 hrs by CCK-8 assay relative to control; format: toxicity, cell-based, Corneal epithelial cell; conditions: at 6.25 µg/mL, read-out: Activity
Escherichia coli [24] = test: Antimicrobial activity against Escherichia coli ATCC25922 assessed as bacterial growth inhibition incubated for 24 hrs in presence of 3220 ug/mL Na+ by Muller Hinton broth based dilution assay; format: functional
Staphylococcus aureus [25] = test: Antibiofilm activity against Staphylococcus aureus ATCC29213 assessed as inhibition of biofilm formation at 3.125 ug/mL incubated for 24 hrs by crystal violet staining based analysis relative to control; format: functional
[26] = Cytotoxicity against mouse J774.A1 cells assessed as viable cells at 3.125 ug/mL incubated for 24 hrs by CCK-8 assay relative to control; format: toxicity, cell-based; conditions: at 3.125 µg/mL, read-out: Activity
Escherichia coli [27] = test: Antimicrobial activity against Escherichia coli ATCC25922 assessed as bacterial growth inhibition incubated for 24 hrs by Muller Hinton broth based dilution assay; format: functional
Staphylococcus aureus [28] = test: Antibiofilm activity against Staphylococcus aureus ATCC29213 assessed as inhibition of biofilm formation at 0.39 ug/mL incubated for 24 hrs by crystal violet staining based analysis relative to control; format: functional
Staphylococcus aureus [29] = test: Antimicrobial activity against Staphylococcus aureus ATCC29213 assessed as bacterial growth inhibition incubated for 24 hrs by Muller Hinton broth based dilution assay; format: functional
Staphylococcus aureus [30] = test: Antimicrobial activity against methicillin-resistant Staphylococcus aureus NCTC10442 assessed as bacterial growth inhibition incubated for 24 hrs by Muller Hinton broth based dilution assay; format: functional
Pseudomonas aeruginosa [31] = test: Antimicrobial activity against Pseudomonas aeruginosa ATCC9027 assessed as bacterial growth inhibition incubated for 24 hrs by Muller Hinton broth based dilution assay; format: functional
Acinetobacter baumannii = test: Antimicrobial activity against Acinetobacter baumannii ATCC17978 assessed as bacterial growth inhibition incubated for 24 hrs in presence of 24.3 ug/mL Mg2+ by Muller Hinton broth based dilution assay; format: functional
Escherichia coli [32] = test: Antimicrobial activity against Escherichia coli ATCC25922 assessed as bacterial growth inhibition incubated for 24 hrs in presence of 175.5 ug/mL K+ by Muller Hinton broth based dilution assay; format: functional

## CC(C)=CCN1CCCc2cc(OCCCCCCCCNC(=N)N)ccc21
[1]
  viability at 24 h, 12.5 ug/mL: 89.3%
Staphylococcus aureus [2]
  MIC: 0.78 µg/mL (≈ 2.02 µM)
Staphylococcus aureus [3]
  Activity: 29.55%
Staphylococcus aureus [4]
  Activity: 7.12%
Cell membrane [5]
  Activity: Dose-Dependent Effect
Staphylococcus aureus [6]
  MIC: 0.78 µg/mL
Escherichia coli [7]
  log(activity): >3
Escherichia coli [8]
  Activity: inactive
[9]
  viability at 24 h, 12.5 ug/mL: 90%
Staphylococcus aureus [10]
  Activity: 70.52%
[11]
  viability at 24 h, 3.125 ug/mL: 95.5%
Staphylococcus aureus [12]
  MIC: 0.78 µg/mL
Klebsiella pneumoniae
  MIC: 3.12 µg/mL (≈ 8.08 µM)
Cell membrane [13]
  Activity: Active
Staphylococcus aureus [14]
  Activity: 10.5%
Pseudomonas aeruginosa [15]
  log(activity): 3.4
Candida albicans [16]
  MIC: 0.78 µg/mL
Candida albicans [17]
  MIC: 1.56 µg/mL
[18]
  viability at 24 h, 25 ug/mL: 76.9%
Candida albicans [19]
  MIC: 0.78 µg/mL
Candida albicans [20]
  MIC: 0.78 µg/mL
Escherichia coli [21]
  MIC: 3.12 µg/mL
Staphylococcus aureus [22]
  Activity: inactive
[23]
  viability at 24 h, 6.25 ug/mL: 93.6%
Escherichia coli [24]
  MIC: 3.12 µg/mL
Staphylococcus aureus [25]
  inhibition at 3.125 µg/mL: 100%
[26]
  viability at 24 h, 3.125 ug/mL: 99.5%
Escherichia coli [27]
  MIC: 3.12 µg/mL (≈ 8.08 µM)
Staphylococcus aureus [28]
  inhibition at 0.39 µg/mL: 50.2%
Staphylococcus aureus [29]
  MIC: 1.56 µg/mL (≈ 4.04 µM)
Staphylococcus aureus [30]
  MIC: 0.78 µg/mL (≈ 2.02 µM)
Pseudomonas aeruginosa [31]
  MIC: 6.25 µg/mL (≈ 16.2 µM)
Acinetobacter baumannii
  MIC: 3.12 µg/mL
Escherichia coli [32]
  MIC: 3.12 µg/mL

## CCCCCCCCCN1CCCc2cc(OCCCCNC(=N)N)ccc21
[1]
  viability at 24 h, 12.5 ug/mL: 89.4%
Staphylococcus aureus [2]
  MIC: 0.78 µg/mL (≈ 2.01 µM)
Staphylococcus aureus [3]
  Activity: 10.76%
Staphylococcus aureus [4]
  Activity: 0.3%
Cell membrane [5]
  Activity: Dose-Dependent Effect
Staphylococcus aureus [6]
  MIC: 0.78 µg/mL
Escherichia coli [7]
  log(activity): >3
Escherichia coli [8]
  Activity: inactive
[9]
  viability at 24 h, 12.5 ug/mL: 91.9%
Staphylococcus aureus [10]
  Activity: 71.31%
[11]
  viability at 24 h, 3.125 ug/mL: 95.5%
Staphylococcus aureus [12]
  MIC: 0.78 µg/mL
Klebsiella pneumoniae
  MIC: 1.56 µg/mL (≈ 4.01 µM)
Cell membrane [13]
  Activity: Active
Staphylococcus aureus [14]
  Activity: 4.69%
Pseudomonas aeruginosa [15]
  log(activity): 3.2
Candida albicans [16]
  MIC: 1.56 µg/mL
Candida albicans [17]
  MIC: 1.56 µg/mL
[18]
  viability at 24 h, 25 ug/mL: 57.7%
Candida albicans [19]
  MIC: 0.78 µg/mL
Candida albicans [20]
  MIC: 0.78 µg/mL
Escherichia coli [21]
  MIC: 1.56 µg/mL
Staphylococcus aureus [22]
  Activity: inactive
[23]
  viability at 24 h, 6.25 ug/mL: 88.9%
Escherichia coli [24]
  MIC: 1.56 µg/mL
Staphylococcus aureus [25]
  inhibition at 3.125 µg/mL: 102%
[26]
  viability at 24 h, 3.125 ug/mL: 98.3%
Escherichia coli [27]
  MIC: 1.56 µg/mL (≈ 4.01 µM)
Staphylococcus aureus [28]
  inhibition at 0.39 µg/mL: 65.2%
Staphylococcus aureus [29]
  MIC: 1.56 µg/mL (≈ 4.01 µM)
Staphylococcus aureus [30]
  MIC: 1.56 µg/mL (≈ 4.01 µM)
Pseudomonas aeruginosa [31]
  MIC: 6.25 µg/mL (≈ 16.1 µM)
Acinetobacter baumannii
  MIC: 3.12 µg/mL
Escherichia coli [32]
  MIC: 1.56 µg/mL
